# Experimental data: ChEMBL document CHEMBL3351417, “Thiophene-3-carboxamide analogue of annonaceous acetogenins as antitumor drug lead” (Eur J Med Chem, 2014)
# Test system: not listed separately
# Experiment: Growth inhibition of human RXF631L cells after 48 hrs by sulforhodamine B colorimetric assay
# Type: functional
# Conditions: RXF 631, 48 h
row,Compound,GI50
1,CCCCCCCCCCCC[C@@H](O)[C@H]1CC[C@H]([C@H](O)CCCCCCCCCCNC(=O)c2cccs2)O1,3240 nM

# Test system: not listed separately
# Experiment: Growth inhibition of human SNB78 cells after 48 hrs by sulforhodamine B colorimetric assay
# Type: functional
# Conditions: SNB-78, 48 h
row,Compound,GI50
1,CCCCCCCCCCCC[C@@H](O)[C@H]1CC[C@H]([C@H](O)CCCCCCCCCCNC(=O)c2cccs2)O1,2290 nM

# Test system: not listed separately
# Experiment: Growth inhibition of human DMS273 cells after 48 hrs by sulforhodamine B colorimetric assay
# Type: functional
# Conditions: DMS-273, 48 h
row,Compound,GI50
1,CCCCCCCCCCCC[C@@H](O)[C@H]1CC[C@H]([C@H](O)CCCCCCCCCCNC(=O)c2cccs2)O1,1820 nM

# Test system: MCF7
# Experiment: Growth inhibition of human MCF7 cells after 48 hrs by sulforhodamine B colorimetric assay
# Type: functional
# Conditions: MCF7, 48 h
row,GI50,Compound
1,2190 nM,CCCCCCCCCCCC[C@@H](O)[C@H]1CC[C@H]([C@H](O)CCCCCCCCCCNC(=O)c2cccs2)O1

# Test system: NCI-H23
# Experiment: Growth inhibition of human NCI-H23 cells after 48 hrs by sulforhodamine B colorimetric assay
# Type: functional
# Conditions: NCI-H23, 48 h
row,GI50,Compound
1,676 nM,CCCCCCCCCCCC[C@@H](O)[C@H]1CC[C@H]([C@H](O)CCCCCCCCCCNC(=O)c2cccs2)O1

# Test system: not listed separately
# Experiment: Growth inhibition of human MKN1 cells after 48 hrs by sulforhodamine B colorimetric assay
# Type: functional
# Conditions: MKN-1, 48 h
row,Compound,GI50
1,CCCCCCCCCCCC[C@@H](O)[C@H]1CC[C@H]([C@H](O)CCCCCCCCCCNC(=O)c2cccs2)O1,1820 nM

# Test system: A549
# Experiment: Growth inhibition of human A549 cells after 48 hrs by sulforhodamine B colorimetric assay
# Type: functional
# Conditions: A549, 48 h
row,GI50,Compound
1,3720 nM,CCCCCCCCCCCC[C@@H](O)[C@H]1CC[C@H]([C@H](O)CCCCCCCCCCNC(=O)c2cccs2)O1

# Test system: SNB-75
# Experiment: Growth inhibition of human SNB75 cells after 48 hrs by sulforhodamine B colorimetric assay
# Type: functional
# Conditions: SNB-75, 48 h
row,Compound,GI50
1,CCCCCCCCCCCC[C@@H](O)[C@H]1CC[C@H]([C@H](O)CCCCCCCCCCNC(=O)c2cccs2)O1,3390 nM

# Test system: NCI-H522
# Experiment: Growth inhibition of human NCI-H522 cells after 48 hrs by sulforhodamine B colorimetric assay
# Type: functional
# Conditions: NCI-H522, 48 h
row,GI50,Compound
1,1100 nM,CCCCCCCCCCCC[C@@H](O)[C@H]1CC[C@H]([C@H](O)CCCCCCCCCCNC(=O)c2cccs2)O1

# Test system: NCI-H226
# Experiment: Growth inhibition of human NCI-H226 cells after 48 hrs by sulforhodamine B colorimetric assay
# Type: functional
# Conditions: NCI-H226, 48 h
row,GI50,Compound
1,2090 nM,CCCCCCCCCCCC[C@@H](O)[C@H]1CC[C@H]([C@H](O)CCCCCCCCCCNC(=O)c2cccs2)O1

# Test system: St-4
# Experiment: Growth inhibition of human St-4 cells after 48 hrs by sulforhodamine B colorimetric assay
# Type: functional
# Conditions: St-4, 48 h
row,Compound,GI50
1,CCCCCCCCCCCC[C@@H](O)[C@H]1CC[C@H]([C@H](O)CCCCCCCCCCNC(=O)c2cccs2)O1,1820 nM

# Test system: not listed separately
# Experiment: Growth inhibition of human HBC5 cells after 48 hrs by sulforhodamine B colorimetric assay
# Type: functional
# Conditions: HBC5, 48 h
row,Compound,GI50
1,CCCCCCCCCCCC[C@@H](O)[C@H]1CC[C@H]([C@H](O)CCCCCCCCCCNC(=O)c2cccs2)O1,3240 nM

# Test system: MDA-MB-231
# Experiment: Growth inhibition of human MDA-MB-231 cells after 48 hrs by sulforhodamine B colorimetric assay
# Type: functional
# Conditions: MDA-MB-231, 48 h
row,GI50,Compound
1,2570 nM,CCCCCCCCCCCC[C@@H](O)[C@H]1CC[C@H]([C@H](O)CCCCCCCCCCNC(=O)c2cccs2)O1

# Test system: KM12
# Experiment: Growth inhibition of human KM12 cells after 48 hrs by sulforhodamine B colorimetric assay
# Type: functional
# Conditions: KM12, 48 h
row,Compound,GI50
1,CCCCCCCCCCCC[C@@H](O)[C@H]1CC[C@H]([C@H](O)CCCCCCCCCCNC(=O)c2cccs2)O1,3090 nM

# Test system: not listed separately
# Experiment: Growth inhibition of human PC3 cells after 48 hrs by sulforhodamine B colorimetric assay
# Type: functional
# Conditions: PC-3, 48 h
row,Compound,GI50
1,CCCCCCCCCCCC[C@@H](O)[C@H]1CC[C@H]([C@H](O)CCCCCCCCCCNC(=O)c2cccs2)O1,2290 nM

# Test system: not listed separately
# Experiment: Growth inhibition of human OVCAR3 cells after 48 hrs by sulforhodamine B colorimetric assay
# Type: functional
# Conditions: OVCAR-3, 48 h
row,Compound,GI50
1,CCCCCCCCCCCC[C@@H](O)[C@H]1CC[C@H]([C@H](O)CCCCCCCCCCNC(=O)c2cccs2)O1,42.7 nM

# Test system: not listed separately
# Experiment: Growth inhibition of human MKN74 cells after 48 hrs by sulforhodamine B colorimetric assay
# Type: functional
# Conditions: MKN-74, 48 h
row,Compound,GI50
1,CCCCCCCCCCCC[C@@H](O)[C@H]1CC[C@H]([C@H](O)CCCCCCCCCCNC(=O)c2cccs2)O1,1510 nM

# Test system: HT-29
# Experiment: Growth inhibition of human HT-29 cells after 48 hrs by sulforhodamine B colorimetric assay
# Type: functional
# Conditions: HT-29, 48 h
row,GI50,Compound
1,2190 nM,CCCCCCCCCCCC[C@@H](O)[C@H]1CC[C@H]([C@H](O)CCCCCCCCCCNC(=O)c2cccs2)O1

# Test system: not listed separately
# Experiment: Growth inhibition of human HBC4 cells after 48 hrs by sulforhodamine B colorimetric assay
# Type: functional
# Conditions: HBC4, 48 h
row,Compound,GI50
1,CCCCCCCCCCCC[C@@H](O)[C@H]1CC[C@H]([C@H](O)CCCCCCCCCCNC(=O)c2cccs2)O1,3390 nM

# Test system: not listed separately
# Experiment: Growth inhibition of human HCC2998 cells after 48 hrs by sulforhodamine B colorimetric assay
# Type: functional
# Conditions: HCC 2998, 48 h
row,Compound,GI50
1,CCCCCCCCCCCC[C@@H](O)[C@H]1CC[C@H]([C@H](O)CCCCCCCCCCNC(=O)c2cccs2)O1,2000 nM

# Test system: not listed separately
# Experiment: Growth inhibition of human HCT15 cells after 48 hrs by sulforhodamine B colorimetric assay
# Type: functional
# Conditions: HCT-15, 48 h
row,Compound,GI50
1,CCCCCCCCCCCC[C@@H](O)[C@H]1CC[C@H]([C@H](O)CCCCCCCCCCNC(=O)c2cccs2)O1,5750 nM

# Test system: SF-268
# Experiment: Growth inhibition of human SF268 cells after 48 hrs by sulforhodamine B colorimetric assay
# Type: functional
# Conditions: SF-268, 48 h
row,Compound,GI50
1,CCCCCCCCCCCC[C@@H](O)[C@H]1CC[C@H]([C@H](O)CCCCCCCCCCNC(=O)c2cccs2)O1,3980 nM

# Test system: DU-145
# Experiment: Growth inhibition of human DU145 cells after 48 hrs by sulforhodamine B colorimetric assay
# Type: functional
# Conditions: DU-145, 48 h
row,GI50,Compound
1,2690 nM,CCCCCCCCCCCC[C@@H](O)[C@H]1CC[C@H]([C@H](O)CCCCCCCCCCNC(=O)c2cccs2)O1

# Test system: not listed separately
# Experiment: Growth inhibition of human LOXIMVI cells after 48 hrs by sulforhodamine B colorimetric assay
# Type: functional
# Conditions: LOX IMVI
row,Compound,GI50
1,CCCCCCCCCCCC[C@@H](O)[C@H]1CC[C@H]([C@H](O)CCCCCCCCCCNC(=O)c2cccs2)O1,1290 nM

# Test system: not listed separately
# Experiment: Growth inhibition of human MKN28 cells after 48 hrs by sulforhodamine B colorimetric assay
# Type: functional
# Conditions: MKN-28, 48 h
row,Compound,GI50
1,CCCCCCCCCCCC[C@@H](O)[C@H]1CC[C@H]([C@H](O)CCCCCCCCCCNC(=O)c2cccs2)O1,363 nM

# Test system: not listed separately
# Experiment: Growth inhibition of human SF295 cells after 48 hrs by sulforhodamine B colorimetric assay
# Type: functional
# Conditions: SF-295, 48 h
row,Compound,GI50
1,CCCCCCCCCCCC[C@@H](O)[C@H]1CC[C@H]([C@H](O)CCCCCCCCCCNC(=O)c2cccs2)O1,1410 nM

# Test system: NCI-H460
# Experiment: Growth inhibition of human NCI-H460 cells after 48 hrs by sulforhodamine B colorimetric assay
# Type: functional
# Conditions: NCI-H460, 48 h
row,GI50,Compound
1,2290 nM,CCCCCCCCCCCC[C@@H](O)[C@H]1CC[C@H]([C@H](O)CCCCCCCCCCNC(=O)c2cccs2)O1

# Test system: SK-OV-3
# Experiment: Growth inhibition of human SKOV3 cells after 48 hrs by sulforhodamine B colorimetric assay
# Type: functional
# Conditions: SK-OV-3, 48 h
row,GI50,Compound
1,28800 nM,CCCCCCCCCCCC[C@@H](O)[C@H]1CC[C@H]([C@H](O)CCCCCCCCCCNC(=O)c2cccs2)O1

# Test system: not listed separately
# Experiment: Growth inhibition of human SF539 cells after 48 hrs by sulforhodamine B colorimetric assay
# Type: functional
# Conditions: SF-539, 48 h
row,Compound,GI50
1,CCCCCCCCCCCC[C@@H](O)[C@H]1CC[C@H]([C@H](O)CCCCCCCCCCNC(=O)c2cccs2)O1,17000 nM

# Test system: not listed separately
# Experiment: Growth inhibition of human OVCAR8 cells after 48 hrs by sulforhodamine B colorimetric assay
# Type: functional
# Conditions: OVCAR-8, 48 h
row,Compound,GI50
1,CCCCCCCCCCCC[C@@H](O)[C@H]1CC[C@H]([C@H](O)CCCCCCCCCCNC(=O)c2cccs2)O1,3020 nM

# Test system: ACHN
# Experiment: Growth inhibition of human ACHN cells after 48 hrs by sulforhodamine B colorimetric assay
# Type: functional
# Conditions: not given
row,GI50,Compound
1,2570 nM,CCCCCCCCCCCC[C@@H](O)[C@H]1CC[C@H]([C@H](O)CCCCCCCCCCNC(=O)c2cccs2)O1

# Test system: not listed separately
# Experiment: Growth inhibition of human DMS114 cells after 48 hrs by sulforhodamine B colorimetric assay
# Type: functional
# Conditions: DMS-114, 48 h
row,Compound,GI50
1,CCCCCCCCCCCC[C@@H](O)[C@H]1CC[C@H]([C@H](O)CCCCCCCCCCNC(=O)c2cccs2)O1,282 nM

# Test system: not listed separately
# Experiment: Growth inhibition of human HCT116 cells after 48 hrs by sulforhodamine B colorimetric assay
# Type: functional
# Conditions: HCT-116, 48 h
row,Compound,GI50
1,CCCCCCCCCCCC[C@@H](O)[C@H]1CC[C@H]([C@H](O)CCCCCCCCCCNC(=O)c2cccs2)O1,1290 nM

# Test system: not listed separately
# Experiment: Growth inhibition of human OVCAR5 cells after 48 hrs by sulforhodamine B colorimetric assay
# Type: functional
# Conditions: OVCAR-5, 48 h
row,Compound,GI50
1,CCCCCCCCCCCC[C@@H](O)[C@H]1CC[C@H]([C@H](O)CCCCCCCCCCNC(=O)c2cccs2)O1,2510 nM

# Test system: not listed separately
# Experiment: Growth inhibition of human BSY1 cells after 48 hrs by sulforhodamine B colorimetric assay
# Type: functional
# Conditions: BSY-1, 48 h
row,Compound,GI50
1,CCCCCCCCCCCC[C@@H](O)[C@H]1CC[C@H]([C@H](O)CCCCCCCCCCNC(=O)c2cccs2)O1,18200 nM

# Test system: not listed separately
# Experiment: Growth inhibition of human MKN7 cells after 48 hrs by sulforhodamine B colorimetric assay
# Type: functional
# Conditions: MKN-7, 48 h
row,Compound,GI50
1,CCCCCCCCCCCC[C@@H](O)[C@H]1CC[C@H]([C@H](O)CCCCCCCCCCNC(=O)c2cccs2)O1,269 nM

# Test system: not listed separately
# Experiment: Growth inhibition of human MKN45 cells after 48 hrs by sulforhodamine B colorimetric assay
# Type: functional
# Conditions: MKN-45, 48 h
row,Compound,GI50
1,CCCCCCCCCCCC[C@@H](O)[C@H]1CC[C@H]([C@H](O)CCCCCCCCCCNC(=O)c2cccs2)O1,3310 nM

# Test system: not listed separately
# Experiment: Growth inhibition of human OVCAR4 cells after 48 hrs by sulforhodamine B colorimetric assay
# Type: functional
# Conditions: OVCAR-4, 48 h
row,Compound,GI50
1,CCCCCCCCCCCC[C@@H](O)[C@H]1CC[C@H]([C@H](O)CCCCCCCCCCNC(=O)c2cccs2)O1,1820 nM

# Test system: U-251
# Experiment: Growth inhibition of human U251 cells after 48 hrs by sulforhodamine B colorimetric assay
# Type: functional
# Conditions: U-251, 48 h
row,GI50,Compound
1,2000 nM,CCCCCCCCCCCC[C@@H](O)[C@H]1CC[C@H]([C@H](O)CCCCCCCCCCNC(=O)c2cccs2)O1
